# Source: publication PMC11063020, “Antiviral and anti-inflammatory activities of chemical constituents from twigs of Mosla chinensis Maxim” (Natural Products and Bioprospecting, 2024)
# Like-named read-outs stand apart in the source and are kept apart here.
# Key:
# [1] = system: NO production in LPS-activated RAW 264.7 cells; assay: Nitric oxide production assay in LPS-activated RAW 264.7 cells; format: cell-based; conditions: Mus musculus, read-out: IC50 (50% inhibitory concentration), LPS-induced NO production
# [2] = Cytotoxicity (CC50) in macrophages; format: cell-based; conditions: mouse
# From the text: Table 3 Inhibitory effect of 9, 22, 23 and 25 on LSP-induced NO production in macrophages | column: CC50^c (µM)
# [3] = system: A/WSN/33/2009 (H1N1) virus; assay: microbe, parasite or virus in culture; format: cell-based; conditions: Influenza A virus, MDCK, 48 h; read-out: IC50 against A/WSN/33/2009 (H1N1) virus
# [4] = system: nucleoprotein expression in influenza virus-infected MDCK cells; format: cell-based, influenza A virus; conditions: 20 at 50 μM, 2, 5 and 8 h
# [5] = system: A/WSN/33/2009 (H1N1) virus in MDCK cells; format: cell-based, influenza A virus; conditions: 20 at 50 μM, versus DMSO group
# [6] = target: hemagglutinin (HA) of influenza A/WSN/33/2009 (H1N1) (Influenza A virus, UniProt P03454); conditions: chicken RBCs without virus
# [7] = RAW264.7, LPS (1 μg/ml) activated RAW 264.7 cells, 24 h
# [8] = macrophages, read-out: CC50 (50% cytotoxic concentration)
# hemagglutinin (HA) of influenza A/WSN/33/2009 (H1N1), sequence (P03454 18-342 limits assumed): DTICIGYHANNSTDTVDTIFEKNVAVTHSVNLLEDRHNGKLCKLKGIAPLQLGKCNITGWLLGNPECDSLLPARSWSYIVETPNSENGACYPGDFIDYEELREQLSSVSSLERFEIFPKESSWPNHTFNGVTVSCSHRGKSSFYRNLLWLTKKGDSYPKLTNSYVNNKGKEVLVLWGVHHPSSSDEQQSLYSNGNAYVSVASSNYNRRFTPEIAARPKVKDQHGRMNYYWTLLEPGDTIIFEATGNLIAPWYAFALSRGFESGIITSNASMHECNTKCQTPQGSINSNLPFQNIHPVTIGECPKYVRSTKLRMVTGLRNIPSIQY
# hemagglutinin (HA) of influenza A/WSN/33/2009 (H1N1), sequence (P03454 344-565 partner limits assumed): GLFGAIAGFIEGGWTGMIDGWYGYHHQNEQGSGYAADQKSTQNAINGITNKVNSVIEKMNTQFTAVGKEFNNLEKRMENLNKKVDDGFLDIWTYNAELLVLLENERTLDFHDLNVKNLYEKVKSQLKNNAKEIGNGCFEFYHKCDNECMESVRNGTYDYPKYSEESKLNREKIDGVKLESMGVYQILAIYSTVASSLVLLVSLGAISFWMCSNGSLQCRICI
Compound,"IC50 [1, 7] [µM]","CC50 [2, 8] [µM]",other results
"COC(=O)[C@H]1Oc2ccc(/C=C/C(=O)O/C=C\c3ccc(O)c(O)c3)cc2O[C@H]1c1ccc(O)c(O)c1 [Compound 22, hyprhombins A]",20.5,> 50,–
"COC(=O)C[C@@H](OC(=O)/C=C/c1ccc(O)c(O)c1)c1ccc(O)c(O)c1 [Compound 23, 3-(3ʹʹʹ,4ʹʹʹ-dihydroxyphenyl)-acrylic acid 1-(3ʹʹ,4ʹʹ-dihydroxyphenyl)-2-methoxycarbonylethyl ester]",27.7,> 50,–
"[H]/N=C(/NC)NCCC[C@H](N)C(=O)O [L-NMMA, reference compound]",–,> 50,"IC50 ([1]; RAW264.7, 24 h): 21.8 µM"
"COC(=O)[C@H]1c2c(/C=C/C(=O)O[C@H](Cc3ccc(O)c(O)c3)C(=O)O)ccc(O)c2O[C@@H]1c1ccc(O)c(O)c1 [Compound 20, methyl lithospermate]",–,–,IC50 [3]: 20.5 µM; nucleoprotein protein expression (western blot) [4]: dramatically reduce the nucleoprotein protein expression; virus population / nucleoprotein distribution in infected cells (fluorescence microscopy) [5]: influenza virus could be inhibited; effect of the compound alone on red blood cells [6]: no effect on red blood cells
"CCOC(=O)C1=C[C@@H](OC(CC)CC)[C@H](NC(C)=O)[C@@H](N)C1 [oseltamivir, reference compound]",–,–,IC50 [3]: 6.85 µM
"COC(=O)[C@H](Cc1ccc(O)c(O)c1)OC(=O)/C=C/c1ccc(O)c2oc(-c3ccc(O)c(O)c3)cc12 [Compound 25, methyl salvianol acid C]",30.1,> 50,–
"O=c1cc(-c2ccc(O)c(O)c2)oc2cc(O)cc(O)c12 [Compound 9, luteolin]",22.8,–,CC50 [2]: > 50 µM
